Data as given in ChEMBL document CHEMBL1154277, “Discovery of N-substituted pyridinones as potent and selective inhibitors of p38 kinase” (Bioorg Med Chem Lett, 2009).

Assays:
[1] = target: PAS domain-containing serine/threonine-protein kinase (Homo sapiens) (UniProt Q96RG2); test: Inhibition of PASK at 10 uM
[2] = target: Ephrin type-B receptor 3 (Homo sapiens) (UniProt P54753); test: Inhibition of EPHB3 at 10 uM
[3] = target: Tyrosine-protein kinase ABL1 (Homo sapiens) (UniProt P00519); test: Inhibition of ABL1 at 10 uM
[4] = target: Protein kinase C eta type (Homo sapiens) (UniProt P24723); test: Inhibition of PKCeta at 10 uM
[5] = target: Glycogen synthase kinase-3 alpha (Homo sapiens) (UniProt P49840); test: Inhibition of GSK3alpha at 10 uM
[6] = target: Mast/stem cell growth factor receptor Kit (Homo sapiens) (UniProt P10721); test: Inhibition of KIT at 10 uM
[7] = target: Protein kinase C zeta type (Homo sapiens) (UniProt Q05513); test: Inhibition of PKCzeta at 10 uM
[8] = target: Ribosomal protein S6 kinase alpha-4 (Homo sapiens) (UniProt O75676); test: Inhibition of MSK2 at 10 uM
[9] = test system: PBMC; test: Antiinflammatory activity against human PBMC assessed as inhibition of LPS-induced TNFalpha release; type: functional, cell-based
[10] = target: Dual specificity tyrosine-phosphorylation-regulated kinase 3 (Homo sapiens) (UniProt O43781); test: Inhibition of DYRK3 at 10 uM
[11] = target: Serine/threonine-protein kinase PLK1 (Homo sapiens) (UniProt P53350); test: Inhibition of PLK1 at 10 uM
[12] = target: Serine/threonine-protein kinase PAK 4 (Homo sapiens) (UniProt O96013); test: Inhibition of PAK4 at 10 uM
[13] = target: Ribosomal protein S6 kinase alpha-5 (Homo sapiens) (UniProt O75582); test: Inhibition of MSK1 at 10 uM
[14] = target: Tyrosine-protein kinase SYK (Homo sapiens) (UniProt P43405); test: Inhibition of SYK at 10 uM
[15] = target: RAC-alpha serine/threonine-protein kinase (Homo sapiens) (UniProt P31749); test: Inhibition of AKT1 at 10 uM
[16] = target: Calcium/calmodulin-dependent protein kinase type IV (Homo sapiens) (UniProt Q16566); test: Inhibition of CAMK4 at 10 uM
[17] = target: Serine/threonine-protein kinase BRSK1 (Homo sapiens) (UniProt Q8TDC3); test: Inhibition of BRSK1 at 10 uM
[18] = target: Serine/threonine-protein kinase Sgk1 (Homo sapiens) (UniProt O00141); test: Inhibition of SGK1 at 10 uM
[19] = test system: Epidermal growth factor receptor (Homo sapiens), P00533 [T790M]; test: Inhibition of EGFR T790M (mutant) at 10 uM; type: protein assay
[20] = target: Ephrin type-B receptor 4 (Homo sapiens) (UniProt P54760); test: Inhibition of EPHB4 at 10 uM
[21] = Clearance in po dosed Sprague-Dawley rat; type: ADME, organism-based; details: in vivo
[22] = target: Angiopoietin-1 receptor (Homo sapiens) (UniProt Q02763); test: Inhibition of Tie2 at 10 uM
[23] = test system: Tyrosine-protein kinase ABL1 (Homo sapiens), P00519 [Y253F]; test: Inhibition of ABL1 Y253F (mutant) at 10 uM
[24] = target: RAC-beta serine/threonine-protein kinase (Homo sapiens) (UniProt P31751); test: Inhibition of AKT2 at 10 uM
[25] = target: Myosin light chain kinase 2, skeletal/cardiac muscle (Homo sapiens) (UniProt Q9H1R3); test: Inhibition of MYLK2 at 10 uM
[26] = target: Casein kinase I isoform epsilon (Homo sapiens) (UniProt P49674); test: Inhibition of CSNK1E at 10 uM
[27] = target: Protein kinase C theta type (Homo sapiens) (UniProt Q04759); test: Inhibition of PKCtheta at 10 uM
[28] = test system: Mast/stem cell growth factor receptor Kit (Homo sapiens), P10721 [T670I]; test: Inhibition of KIT T670I (mutant) at 10 uM
[29] = test system: Receptor-type tyrosine-protein kinase FLT3 (Homo sapiens), P36888 [D835Y]; test: Inhibition of FLT3 D835Y (mutant) at 10 uM
[30] = target: Tyrosine-protein kinase Mer (Homo sapiens) (UniProt Q12866); test: Inhibition of MERTK at 10 uM
[31] = target: CDK9/cyclin T1 (Homo sapiens) (UniProt O60563+P50750); test: Inhibition of CDK9/cyclin T1 at 10 uM; type: protein-complex assay
[32] = target: SRSF protein kinase 1 (Homo sapiens) (UniProt Q96SB4); test: Inhibition of SRPK1 at 10 uM
[33] = target: Interleukin-1 receptor-associated kinase 4 (Homo sapiens) (UniProt Q9NWZ3); test: Inhibition of IRAK4 at 10 uM
[34] = test system: Fibroblast growth factor receptor 3 (Homo sapiens), P22607 [K650E]; test: Inhibition of FGFR3 K650E (mutant) at 10 uM
[35] = Inhibition of PKG2 at 10 uM
[36] = target: Serine/threonine-protein kinase PAK 1 (Homo sapiens) (UniProt Q13153); test: Inhibition of PAK1 at 10 uM
[37] = target: Macrophage colony-stimulating factor 1 receptor (Homo sapiens) (UniProt P07333); test: Inhibition of CSF1R at 10 uM
[38] = test system: Tyrosine-protein kinase ABL1 (Homo sapiens), P00519 [E255K]; test: Inhibition of ABL1 E255K (mutant) at 10 uM
[39] = target: Cytoplasmic tyrosine-protein kinase BMX (Homo sapiens) (UniProt P51813); test: Inhibition of BMX at 10 uM
[40] = test system: Proto-oncogene tyrosine-protein kinase receptor Ret (Homo sapiens), P07949 [V804L]; test: Inhibition of RET V804L (mutant) at 10 uM
[41] = target: NT-3 growth factor receptor (Homo sapiens) (UniProt Q16288); test: Inhibition of TRKC at 10 uM
[42] = target: Protein kinase C gamma type (Homo sapiens) (UniProt P05129); test: Inhibition of PKCgamma at 10 uM
[43] = target: G protein-coupled receptor kinase 4 (Homo sapiens) (UniProt P32298); test: Inhibition of GRK4 at 10 uM
[44] = target: Protein kinase C alpha type (Homo sapiens) (UniProt P17252); test: Inhibition of PKCalpha at 10 uM
[45] = test system: Leucine-rich repeat serine/threonine-protein kinase 2 (Homo sapiens), Q5S007 [G2019S]; test: Inhibition of LRRK2 G2019S mutant at 10 uM
[46] = target: Ribosomal protein S6 kinase alpha-3 (Homo sapiens) (UniProt P51812); test: Inhibition of RSK2 at 10 uM
[47] = target: Mitogen-activated protein kinase kinase kinase 9 (Homo sapiens) (UniProt P80192); test: Inhibition of MLK1 at 10 uM
[48] = target: Serine/threonine-protein kinase D3 (Homo sapiens) (UniProt O94806); test: Inhibition of PKD3 at 10 uM

Mast/stem cell growth factor receptor Kit (Homo sapiens), P10721 [T670I], sequence (P10721 whole entry T670I): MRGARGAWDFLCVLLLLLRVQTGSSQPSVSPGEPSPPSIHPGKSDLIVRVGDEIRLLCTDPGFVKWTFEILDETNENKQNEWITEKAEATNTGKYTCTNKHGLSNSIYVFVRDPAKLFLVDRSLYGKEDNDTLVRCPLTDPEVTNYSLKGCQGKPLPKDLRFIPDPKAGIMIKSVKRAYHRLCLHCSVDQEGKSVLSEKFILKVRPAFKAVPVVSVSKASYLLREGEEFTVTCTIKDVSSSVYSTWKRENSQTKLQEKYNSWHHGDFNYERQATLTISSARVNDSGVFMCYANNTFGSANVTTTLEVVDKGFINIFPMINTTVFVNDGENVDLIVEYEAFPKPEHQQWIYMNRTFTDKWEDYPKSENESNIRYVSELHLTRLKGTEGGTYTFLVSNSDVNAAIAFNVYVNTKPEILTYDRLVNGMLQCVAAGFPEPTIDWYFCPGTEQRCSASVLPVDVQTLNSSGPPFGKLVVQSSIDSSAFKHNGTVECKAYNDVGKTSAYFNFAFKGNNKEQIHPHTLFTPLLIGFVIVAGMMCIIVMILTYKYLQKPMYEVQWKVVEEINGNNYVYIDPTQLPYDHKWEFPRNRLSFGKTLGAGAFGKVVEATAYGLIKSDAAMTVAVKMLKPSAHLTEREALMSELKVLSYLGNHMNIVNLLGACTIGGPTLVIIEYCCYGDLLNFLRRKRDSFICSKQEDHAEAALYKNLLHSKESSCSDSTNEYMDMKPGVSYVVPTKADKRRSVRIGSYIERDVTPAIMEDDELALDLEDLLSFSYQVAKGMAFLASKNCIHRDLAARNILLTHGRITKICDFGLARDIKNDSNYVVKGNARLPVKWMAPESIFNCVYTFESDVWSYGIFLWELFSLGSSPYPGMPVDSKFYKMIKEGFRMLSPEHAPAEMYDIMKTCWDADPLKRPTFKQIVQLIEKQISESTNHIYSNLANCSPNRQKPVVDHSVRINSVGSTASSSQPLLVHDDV
Protein kinase C zeta type (Homo sapiens), sequence (Q05513 whole entry): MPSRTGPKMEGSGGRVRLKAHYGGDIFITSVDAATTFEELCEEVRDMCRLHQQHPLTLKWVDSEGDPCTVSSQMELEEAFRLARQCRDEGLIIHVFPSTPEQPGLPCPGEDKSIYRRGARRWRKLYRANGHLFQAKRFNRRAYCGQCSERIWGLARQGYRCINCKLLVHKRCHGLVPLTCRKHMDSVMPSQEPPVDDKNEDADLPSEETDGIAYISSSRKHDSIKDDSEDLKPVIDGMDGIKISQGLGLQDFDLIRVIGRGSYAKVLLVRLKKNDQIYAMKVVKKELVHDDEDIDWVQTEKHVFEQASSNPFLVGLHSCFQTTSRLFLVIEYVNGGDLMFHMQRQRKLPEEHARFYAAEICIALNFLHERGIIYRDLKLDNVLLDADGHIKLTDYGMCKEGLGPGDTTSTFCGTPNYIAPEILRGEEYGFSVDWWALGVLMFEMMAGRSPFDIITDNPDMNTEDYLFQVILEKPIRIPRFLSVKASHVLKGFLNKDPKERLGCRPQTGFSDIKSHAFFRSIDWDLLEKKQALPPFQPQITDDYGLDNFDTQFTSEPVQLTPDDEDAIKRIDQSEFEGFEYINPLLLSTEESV
NT-3 growth factor receptor (Homo sapiens), sequence (Q16288 32-839 limits assumed): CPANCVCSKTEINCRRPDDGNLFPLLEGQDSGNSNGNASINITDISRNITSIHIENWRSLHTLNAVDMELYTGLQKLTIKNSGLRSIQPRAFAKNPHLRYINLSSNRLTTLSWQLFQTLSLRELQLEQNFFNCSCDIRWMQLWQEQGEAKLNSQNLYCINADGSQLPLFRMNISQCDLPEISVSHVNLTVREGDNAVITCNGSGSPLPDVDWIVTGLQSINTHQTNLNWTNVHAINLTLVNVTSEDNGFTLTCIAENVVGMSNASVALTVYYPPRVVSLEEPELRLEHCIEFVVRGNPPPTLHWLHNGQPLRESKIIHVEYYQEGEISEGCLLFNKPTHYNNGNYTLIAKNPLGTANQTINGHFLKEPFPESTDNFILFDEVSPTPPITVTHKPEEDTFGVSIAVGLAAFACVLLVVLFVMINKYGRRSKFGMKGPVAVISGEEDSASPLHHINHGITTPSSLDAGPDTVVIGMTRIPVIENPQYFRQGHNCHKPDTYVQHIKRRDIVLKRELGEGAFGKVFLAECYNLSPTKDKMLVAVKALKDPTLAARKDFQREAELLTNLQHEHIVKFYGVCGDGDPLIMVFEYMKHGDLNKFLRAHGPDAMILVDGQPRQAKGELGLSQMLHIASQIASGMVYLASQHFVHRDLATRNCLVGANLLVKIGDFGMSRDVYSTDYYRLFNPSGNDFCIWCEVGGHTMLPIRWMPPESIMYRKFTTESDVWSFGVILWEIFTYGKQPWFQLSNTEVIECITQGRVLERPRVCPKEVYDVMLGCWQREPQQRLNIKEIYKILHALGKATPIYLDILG
Ephrin type-B receptor 3 (Homo sapiens), sequence (P54753 whole entry): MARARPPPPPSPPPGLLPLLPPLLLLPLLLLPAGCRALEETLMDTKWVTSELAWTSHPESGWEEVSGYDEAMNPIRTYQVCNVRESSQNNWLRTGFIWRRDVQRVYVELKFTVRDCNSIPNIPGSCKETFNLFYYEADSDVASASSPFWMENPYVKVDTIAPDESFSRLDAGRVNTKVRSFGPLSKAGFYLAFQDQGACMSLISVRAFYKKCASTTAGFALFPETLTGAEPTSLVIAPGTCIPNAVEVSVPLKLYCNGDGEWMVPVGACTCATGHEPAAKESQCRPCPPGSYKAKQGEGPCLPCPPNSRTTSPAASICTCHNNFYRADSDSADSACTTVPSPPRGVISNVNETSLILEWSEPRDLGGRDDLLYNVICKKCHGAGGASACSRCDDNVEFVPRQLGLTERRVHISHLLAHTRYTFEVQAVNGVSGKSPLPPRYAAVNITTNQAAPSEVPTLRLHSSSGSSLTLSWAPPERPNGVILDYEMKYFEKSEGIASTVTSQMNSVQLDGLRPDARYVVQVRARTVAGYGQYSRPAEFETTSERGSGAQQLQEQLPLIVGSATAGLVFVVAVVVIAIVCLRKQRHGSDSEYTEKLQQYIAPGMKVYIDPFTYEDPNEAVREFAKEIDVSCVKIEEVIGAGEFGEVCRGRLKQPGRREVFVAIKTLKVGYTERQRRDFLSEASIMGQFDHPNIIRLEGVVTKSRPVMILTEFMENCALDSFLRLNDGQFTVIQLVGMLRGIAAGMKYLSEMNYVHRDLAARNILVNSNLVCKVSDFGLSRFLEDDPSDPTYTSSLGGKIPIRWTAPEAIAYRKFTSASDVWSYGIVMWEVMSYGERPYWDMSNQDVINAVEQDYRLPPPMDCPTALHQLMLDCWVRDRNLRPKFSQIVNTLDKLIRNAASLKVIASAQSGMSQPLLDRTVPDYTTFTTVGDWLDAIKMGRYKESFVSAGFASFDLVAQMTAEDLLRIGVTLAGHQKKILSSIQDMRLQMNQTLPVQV
Ribosomal protein S6 kinase alpha-3 (Homo sapiens), sequence (P51812 whole entry): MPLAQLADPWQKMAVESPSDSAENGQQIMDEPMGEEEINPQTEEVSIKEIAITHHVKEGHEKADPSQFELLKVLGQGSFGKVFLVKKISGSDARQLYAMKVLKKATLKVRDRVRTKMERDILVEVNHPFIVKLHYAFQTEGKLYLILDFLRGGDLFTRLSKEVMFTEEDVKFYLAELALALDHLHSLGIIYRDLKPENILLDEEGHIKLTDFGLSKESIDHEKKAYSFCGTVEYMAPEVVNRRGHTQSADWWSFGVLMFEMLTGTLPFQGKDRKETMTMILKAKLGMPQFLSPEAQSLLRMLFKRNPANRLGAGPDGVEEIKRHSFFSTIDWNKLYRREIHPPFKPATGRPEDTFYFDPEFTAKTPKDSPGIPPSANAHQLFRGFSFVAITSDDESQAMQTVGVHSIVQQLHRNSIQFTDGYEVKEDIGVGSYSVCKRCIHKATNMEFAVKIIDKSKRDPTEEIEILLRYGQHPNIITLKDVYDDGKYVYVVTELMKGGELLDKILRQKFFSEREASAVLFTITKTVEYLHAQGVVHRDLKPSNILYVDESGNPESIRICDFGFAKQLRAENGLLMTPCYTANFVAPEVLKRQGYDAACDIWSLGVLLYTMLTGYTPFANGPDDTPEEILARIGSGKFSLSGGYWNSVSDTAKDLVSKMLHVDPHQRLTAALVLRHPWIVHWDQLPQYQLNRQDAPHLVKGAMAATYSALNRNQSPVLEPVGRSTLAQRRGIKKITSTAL
Ribosomal protein S6 kinase alpha-5 (Homo sapiens), sequence (O75582 whole entry, looked up): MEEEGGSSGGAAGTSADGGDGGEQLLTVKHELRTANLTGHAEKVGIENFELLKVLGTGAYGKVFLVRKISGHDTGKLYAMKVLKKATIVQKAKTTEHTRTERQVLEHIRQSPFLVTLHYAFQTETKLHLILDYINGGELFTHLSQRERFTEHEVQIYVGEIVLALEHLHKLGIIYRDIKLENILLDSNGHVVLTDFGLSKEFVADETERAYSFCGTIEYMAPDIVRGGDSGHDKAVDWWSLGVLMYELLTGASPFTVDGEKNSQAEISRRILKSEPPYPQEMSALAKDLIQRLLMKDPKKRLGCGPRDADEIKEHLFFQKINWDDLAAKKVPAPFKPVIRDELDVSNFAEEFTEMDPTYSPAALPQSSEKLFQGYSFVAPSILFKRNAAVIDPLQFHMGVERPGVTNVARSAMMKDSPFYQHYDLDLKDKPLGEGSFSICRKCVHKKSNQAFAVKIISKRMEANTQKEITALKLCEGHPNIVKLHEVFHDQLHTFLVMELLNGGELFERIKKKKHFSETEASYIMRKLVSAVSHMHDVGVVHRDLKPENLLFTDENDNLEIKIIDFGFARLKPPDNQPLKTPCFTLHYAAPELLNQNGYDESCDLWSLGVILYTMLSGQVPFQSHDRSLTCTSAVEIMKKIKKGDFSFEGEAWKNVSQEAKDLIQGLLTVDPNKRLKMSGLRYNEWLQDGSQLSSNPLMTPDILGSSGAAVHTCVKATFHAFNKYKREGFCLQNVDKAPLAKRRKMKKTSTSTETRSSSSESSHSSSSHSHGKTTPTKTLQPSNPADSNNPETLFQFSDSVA
Mast/stem cell growth factor receptor Kit (Homo sapiens), sequence (P10721 whole entry): as the sequence (P10721 whole entry T670I) above, with I670T counted along it

inhibition [1]: < 50% | inhibition [2]: < 50% | inhibition [3]: < 50% | inhibition [4]: < 50% | inhibition [5]: < 50% | inhibition [6]: < 50% | inhibition [7]: < 50% | inhibition [8]: < 50% | inhibition [10]: < 50% | inhibition [11]: < 50% | inhibition [12]: < 50% | inhibition [13]: < 50% | inhibition [14]: < 50% | inhibition [15]: < 50% | inhibition [16]: < 50% | inhibition [17]: < 50% | inhibition [18]: < 50% | inhibition [19]: < 50% | inhibition [20]: < 50% | CL/F [21]: 70 mL/min/kg | inhibition [22]: < 50% | inhibition [23]: < 50% | inhibition [24]: < 50% | inhibition [25]: < 50% | inhibition [26]: < 50% | inhibition [27]: < 50% | inhibition [28]: < 50% | inhibition [29]: < 50% | inhibition [30]: < 50% | inhibition [31]: < 50% | inhibition [32]: < 50% | inhibition [33]: < 50% | inhibition [34]: < 50% | inhibition [35]: < 50% | inhibition [36]: < 50% | inhibition [37]: < 50% | inhibition [38]: < 50% | inhibition [39]: < 50% | inhibition [40]: < 50% | inhibition [41]: < 50% | inhibition [42]: < 50% | inhibition [43]: < 50% | inhibition [44]: < 50% | inhibition [45]: < 50% | inhibition [46]: < 50% | inhibition [47]: < 50% | inhibition [48]: < 50%
SMILES: Cc1cc(OCc2ccc(F)cc2F)c(Br)c(=O)n1Cc1ccc(CN(C)C)cc1
IC50 [9]: 44 nM
